According to patent US9302999B2, “Substituted triazoles as herbicides” (E. I. DU PONT DE NEMOURS AND COMPANY, priority 2012, dated 2016):

How the values were obtained:
Type in all cases: in vivo
[1] = tested on: large crabgrass (Digitaria sanguinalis); assay: Test C pre-/postemergence: large crabgrass
Summary of the method: (§1)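 Visual injury scored 0–100 (100 = complete control) against untreated controls after 13–15 greenhouse days. Surfactant-containing solvent formulations applied either to soil after sowing (loam/sand) or over 1- to 4-leaf plants, 2–18 cm tall.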

kochia (Kochia scoparia) = assay: Test C pre-/postemergence: kochia
Summary of the method: as §1

[2] = tested on: nutsedge, yellow (yellow nutsedge, Cyperus esculentus); assay: Test C pre-/postemergence: nutsedge, yellow
Summary of the method: as §1

[3] = tested on: chickweed (common chickweed, Stellaria media); assay: Test C postemergence: chickweed
Summary of the method: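 Plants at the 1- to 4-leaf stage (2 to 18 cm tall), grown in pots of peat moss/vermiculite planting medium, received postemergence applications of the formulated test chemicals. After 13 to 15 days in a greenhouse, injury was scored visually versus controls from 0 (no effect) to 100 (complete control).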

[4] = tested on: ragweed (common ragweed, Ambrosia elation); assay: Test C pre-/postemergence: ragweed; conditions: Postemergence
Summary of the method: as §1

[5] = tested on: foxtail, giant (giant foxtail, Setaria faberii); assay: Test C pre-/postemergence: foxtail, giant
Summary of the method: as §1

wild oat (Avena fatua) = assay: Test C pre-/postemergence: wild oat
Summary of the method: as §1

[6] = tested on: velvetleaf (Abutilon theophrasti); assay: Test C pre-/postemergence: velvetleaf
Summary of the method: as §1

corn (Zea mays) [7] = assay: Test C pre-/postemergence: corn
Summary of the method: as §1

corn (Zea mays) [8] = assay: Test A pre-/postemergence: corn; conditions: Zea mays, 240 h
Summary of the method: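 Visual 0–100 injury ratings (0 no effect, 100 complete control) taken about ten days after treatment, relative to untreated controls. Preemergence treatment was a directed soil spray; postemergence plants were 2–10 cm tall at one- to two-leaf stage. Soil: loam/sand blend.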

[9] = Postemergence, 31 g ai/ha, scale 0 to 100 (0 no effect, 100 complete control)
[10] = Postemergence, 62 g ai/ha, scale 0 to 100 (0 no effect, 100 complete control)
[11] = Postemergence, 125 g ai/ha, scale 0 to 100, 0 no effect, 100 complete control
[12] = Postemergence, 250 g ai/ha, scale 0 to 100
[13] = Preemergence, 31 g ai/ha, scale of 0 to 100, 0 is no effect, 100 is complete control
[14] = Preemergence, 62 g ai/ha, scale of 0 to 100, 0 is no effect, 100 is complete control
[15] = Preemergence, 125 g ai/ha, scale 0 to 100, 0 no effect, 100 complete control
[16] = Preemergence, 250 g ai/ha, scale 0 to 100, 0 no effect, 100 complete control
[17] = 31 g ai/ha, scale 0 to 100 (0 no effect, 100 complete control)
[18] = 62 g ai/ha, scale 0 to 100 (0 no effect, 100 complete control)
[19] = 125 g ai/ha, scale 0 to 100, 0 no effect, 100 complete control

## FC(F)(F)COc1nn(-c2ccc(C(F)(F)F)cc2)nc1Cc1ccnc(C(F)(F)F)c1 [Compound 14, 4-[[5-(2,2,2-trifluoroethoxy)-2-[4-(trifluoromethyl)phenyl]-2H-1,2,3-triazol-4-yl]methyl]-2-(trifluoromethyl)pyridine]
[1]; [9]
  Plant response rating, Crabgrass, Large: 10
[1]; [10]
  Plant response rating, Crabgrass, Large: 45
[1]; [11]
  Plant response rating, Crabgrass, Large: 45
[1]; [12]
  Plant response rating, Crabgrass, Large: 60
[1]; [13]
  Plant response rating, Crabgrass, Large: 95
[1]; [14]
  Plant response rating, Crabgrass, Large: 100
[1]; [15]
  Plant response rating, Crabgrass, Large: 100
[1]; [16]
  Plant response rating, Crabgrass, Large: 100
Kochia (Kochia scoparia); [9]
  Plant response rating, Kochia: 90
Kochia (Kochia scoparia); [10]
  Plant response rating, Kochia: 95
Kochia (Kochia scoparia); [11]
  Plant response rating, Kochia: 95
Kochia (Kochia scoparia); [12]
  Plant response rating, Kochia: 95
Kochia (Kochia scoparia); [13]
  Plant response rating, Kochia: 0
Kochia (Kochia scoparia); [14]
  Plant response rating, Kochia: 0
Kochia (Kochia scoparia); [15]
  Plant response rating, Kochia: 75
Kochia (Kochia scoparia); [16]
  Plant response rating, Kochia: 85
[2]; [9]
  Plant response rating, Nutsedge, Yellow: 0
[2]; [10]
  Plant response rating, Nutsedge, Yellow: 0
[2]; [11]
  Plant response rating, Nutsedge, Yellow: 0
[2]; [12]
  Plant response rating, Nutsedge, Yellow: 0
[2]; [13]
  Plant response rating, Nutsedge, Yellow: 0
[2]; [14]
  Plant response rating, Nutsedge, Yellow: 0
[2]; [15]
  Plant response rating, Nutsedge, Yellow: 0
[2]; [16]
  Plant response rating, Nutsedge, Yellow: 0
[3]; [17]
  Plant response rating, Chickweed: 60
[3]; [18]
  Plant response rating, Chickweed: 75
[3]; [19]
  Plant response rating, Chickweed: 75
[3]; 250 g ai/ha, scale 0 to 100
  Plant response rating, Chickweed: 80
[4]; [17]
  Plant response rating, Ragweed: 55
[4]; [18]
  Plant response rating, Ragweed: 55
[4]; [19]
  Plant response rating, Ragweed: 60
[4]; 250 g ai/ha, scale 0 to 100
  Plant response rating, Ragweed: 80
[5]; [9]
  Plant response rating, Foxtail, Giant: 10
[5]; [10]
  Plant response rating, Foxtail, Giant: 15
[5]; [11]
  Plant response rating, Foxtail, Giant: 30
[5]; [12]
  Plant response rating, Foxtail, Giant: 35
[5]; [13]
  Plant response rating, Foxtail, Giant: 95
[5]; [14]
  Plant response rating, Foxtail, Giant: 98
[5]; [15]
  Plant response rating, Foxtail, Giant: 100
[5]; [16]
  Plant response rating, Foxtail, Giant: 100
Wild oat (Avena fatua); [9]
  Plant response rating, Oat, Wild: 25
Wild oat (Avena fatua); [10]
  Plant response rating, Oat, Wild: 45
Wild oat (Avena fatua); [11]
  Plant response rating, Oat, Wild: 50
Wild oat (Avena fatua); [12]
  Plant response rating, Oat, Wild: 60
Wild oat (Avena fatua); [13]
  Plant response rating, Oat, Wild: 20
Wild oat (Avena fatua); [14]
  Plant response rating, Oat, Wild: 40
Wild oat (Avena fatua); [15]
  Plant response rating, Oat, Wild: 70
Wild oat (Avena fatua); [16]
  Plant response rating, Oat, Wild: 90
[6]; [9]
  Plant response rating, Velvetleaf: 75
[6]; [10]
  Plant response rating, Velvetleaf: 80
[6]; [11]
  Plant response rating, Velvetleaf: 85
[6]; [12]
  Plant response rating, Velvetleaf: 90
[6]; [13]
  Plant response rating, Velvetleaf: 10
[6]; [14]
  Plant response rating, Velvetleaf: 10
[6]; [15]
  Plant response rating, Velvetleaf: 70
[6]; [16]
  Plant response rating, Velvetleaf: 75
Corn (Zea mays) [7]; [9]
  Plant response rating, Corn: 5
Corn (Zea mays) [7]; [10]
  Plant response rating, Corn: 10
Corn (Zea mays) [7]; [11]
  Plant response rating, Corn: 15
Corn (Zea mays) [7]; [12]
  Plant response rating, Corn: 15
Corn (Zea mays) [7]; [13]
  Plant response rating, Corn: 0
Corn (Zea mays) [7]; Preemergence, 62 g ai/ha, scale 0 to 100, 0 no effect, 100 complete control
  Plant response rating, Corn: 0
Corn (Zea mays) [7]; [15]
  Plant response rating, Corn: 5
Corn (Zea mays) [7]; [16]
  Plant response rating, Corn: 10
Corn (Zea mays) [8]; post-emergence, Postemergence, 125 g ai/ha, 0 to 100 scale, 0 is no effect, 100 is complete control, read-out: Corn plant response rating
  plant injury at 125 g/ha: 20%
Corn (Zea mays) [8]; post-emergence, Postemergence, 500 g ai/ha, visual rating on 0 to 100 scale (0 no effect, 100 complete control), approximately ten days, read-out: Corn plant response rating
  plant injury at 500 g/ha: 40%
Corn (Zea mays) [8]; pre-emergence, Preemergence, 125 g ai/ha, 0 to 100 scale (0 no effect, 100 complete control)
  Corn plant response rating (crop injury, 0 = no effect, 100 = complete kill) at 125 g/ha: 20%
Corn (Zea mays) [8]; pre-emergence, Preemergence, 500 g ai/ha, 0 to 100 scale, 0 is no effect, 100 is complete control
  Corn plant response rating (crop injury, 0 = no effect, 100 = complete kill) at 500 g/ha: 30%
